This passage reports clearance and half-life results from ChEMBL document CHEMBL3832043, “DailyMed|setid=ef14e332-51ac-ea97-3542-9bc92557dbed | PROPOFOL- propofol injection, emulsion|APP Pharmaceuticals, LLC”.

Data set [1] can be described thus: Pharmacokinetic parameters of Propofol following intravenous administration in subjects. The conditions noted are these: human, in vivo.
The nature of data set [2]: Pharmacokinetic parameters for Propofol following multiple intravenous administration in subjects. The conditions noted are these: human, in vivo.

The clearance is a measure of how efficiently the substance is removed, as volume per time. High values mean a high capacity for elimination, low ones a low capacity for elimination. The half-life is the time needed for the level to fall by half in the phase considered. Read a high half-life as slow decline. `CC(C)c1cccc(C(C)C)c1O` [PROPOFOL] came in with a clearance in data set [1] of 23 to 50 mL/min/kg. Further, the half-life in data set [2] was 24 to 72 h.
